Experimental data: the METLIN SMRT retention time set (Domingo-Almenara et al. 2019)

test: gradient 5% acetonitrile 3 min, to 50% in 2 min, to 85% in 15 min, held 3 min, 100 µL/min; settings: column: Zorbax Extend-C18 2.1 x 50 mm; eluents: water / acetonitrile, 0.1% formic acid
Method in brief: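 Data were gathered over 3 months by HPLC coupled to a quadrupole time-of-flight mass spectrometer, operated in positive and negative ionization mode. Mixtures of ~100 pure standards ran on a Zorbax Extend-C18 column (2.1 × 50 mm, 1.8 μm) at 100 μL/min, with water and acetonitrile each containing 0.1% formic acid and dead and dwell volumes of 40 μL and 900 μL. Retention time was read from adduct peaks picked by computer and checked manually.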

RP-LC retention time [s] | SMILES
1060 | COc1ccc(-c2nnc(-c3ccc(Cl)c(S(=O)(=O)N4CCCC4)c3)o2)cc1
1030 | CCOc1ccccc1NS(=O)(=O)c1cn(CC(C)C)c2ncccc12
730 | Cc1ccc(-c2cn3cccnc3n2)cc1NC(=O)c1ccc(Br)cc1
695 | COc1ccc(-c2nnc3sc(-c4cccnc4)nn23)cc1OC
971 | Clc1ccc(-c2ccnc3nc(-c4ccccc4)nn23)cc1
755 | O=C(Nc1ccc(F)cc1)C1CCN(S(=O)(=O)c2cc(C(=O)N3CCOCC3)cs2)CC1
651 | CCOc1ccccc1N1CCN(Cc2nc(-c3ccc(N4CCCC4)nc3)no2)CC1
628 | CC(C)OCCCNC(=O)CC1=C2CCCCC2NC1=O (centres undefined)
684 | CNC(=O)c1sc2nc(-c3ccccc3)c(NCCCOC)n2c1C
646 | CS(=O)(=O)N1CCC(C(=O)Nc2nnc(-c3ccc4c(c3)OCCO4)o2)CC1
734 | N#CC1(c2ccc(NC(=O)c3cccnc3NCc3ccncc3)cc2)CCCC1
895 | O=C1CC(c2nc(-c3ccc4c(c3)OCO4)no2)CN1c1ccc2c(c1)OCCO2 (centres undefined)
919 | C=Cc1ccc(CN2N=C(C(=O)N3CCOCC3)S(=O)(=O)c3ccc(C)cc32)cc1
721 | COc1cc(NC(=O)Cn2c(N3CCc4ccccc4C3)nc(C)cc2=O)cc(OC)c1OC
894 | Cc1ccc(-c2cn3c(CC(=O)NC4CCCCCC4)csc3n2)cc1C
807 | CCCNC(=O)C1CCN(c2nc3ccsc3c(=O)n2Cc2ccc(F)cc2)CC1
731 | CCCNC(=O)C1CCCN(c2nc3ncn(CC(=O)Nc4cccc(Cl)c4)c(=O)c3s2)C1 (centres undefined)
824 | CCN1c2ccc(F)cc2C(=O)NC12CCN(C(=O)c1ccc(C)cc1)CC2
640 | COC(=O)c1c(-c2cccc(F)c2)noc1NCCN1CCCC1
1070 | CCOc1ccc(-c2nc(-c3ccc4nnn(C)c4c3)no2)cc1
711 | Cc1nn(-c2cc(N3CCOCC3)ncn2)c(C)c1CCC(=O)NCc1ccco1
1040 | CCc1ccc(CNC(=O)C2CCN(c3ncccc3S(=O)(=O)N3CCCCC3)CC2)cc1

RP-LC retention time [s] | SMILES
771 | Fc1ccccc1CN1CCc2nc(N3CCN(c4ccccc4F)CC3)ncc2C1
696 | COc1ccccc1N1CCN(S(=O)(=O)c2cc3n(c2)CCCNC3=O)CC1
643 | CC1CCN(Cc2nc3cc(NC(=O)c4ccco4)ccc3n2C(C)C)CC1
753 | O=C([C@@H]1C[C@H](F)CN1C(=O)Nc1cccc(Br)c1)N1CCCCC1
738 | CSc1ccccc1C(=O)Nc1ccc(CC(=O)NCC(F)(F)F)cc1
888 | COc1cc(-c2noc(-c3nn(-c4cccc(C)c4)ccc3=O)n2)cc(OC)c1OC
634 | Cc1cnc(C2CC2)n1CCNS(=O)(=O)Cc1ccccc1
1190 | O=C(NCc1cccc(Cl)c1)C1CCCN(c2nc3cccnc3n(Cc3ccccc3)c2=O)C1 (centres undefined)
596 | CNC(=O)c1cc(C)nc2ccc(C(C)C)cc12
716 | Cn1cc(S(=O)(=O)N2CCC(C(=O)Nc3ccc4c(c3)OCO4)CC2)cc1C(=O)N1CCCC1
914 | CC1=NS(=O)(=O)N(C)C=C1C(=O)OCc1noc(-c2ccccc2F)n1
851 | CCn1cc(C(=O)NC2CCCC2)c2nn(-c3ccccc3)c(=O)c-2c1
1180 | Cc1ccc2c(c1)N(Cc1nc(-c3cccc(Br)c3)no1)C(=O)CO2
664 | CC1CCN(CC2CCN(S(=O)(=O)c3ccccc3Cl)CC2)CC1
1160 | O=S(=O)(c1ccc(Br)s1)N1CCc2nc(-c3ccccc3)ncc2C1
1130 | CCOc1ccc(-n2nnc(-c3nc(-c4cccc(OC)c4)cs3)c2N)cc1
546 | COc1ccc(O)c(CNC2CCN(c3ccc(C(=O)NC4CC4)cn3)C2)c1 (centres undefined)
731 | CNc1cc(C)nc2c(-c3ccc(Cl)cc3)cnn12
927 | COc1cccc(-c2noc(C3CCCN3C(=O)Nc3cccc(C#N)c3)n2)c1 (centres undefined)
721 | O=C(CCCN1CCN(Cc2ccc(F)cc2)C(=O)C1=O)NCc1ccc(F)cc1
857 | O=C(Nc1nnc(SCc2nnc(-c3ccc4c(c3)OCO4)o2)s1)c1ccccc1
819 | CCC(C)NC(=O)c1cn(CCOC)cc2c(=O)n(-c3ccccc3)nc1-2 (centres undefined)

RP-LC retention time [s] | SMILES
665 | O=C(N1CC(Oc2ccccc2-c2nc(C3CC3)no2)C1)C1(c2ccccc2)CC1
1210 | Cc1cccc(-c2nc(Cn3nnc(C(=O)NCc4ccc(C(F)(F)F)cc4)c3C)c(C)o2)c1
708 | CC(C)NC(=O)CN1C(=O)CCSc2ccccc21
618 | CCOC(=O)Cn1c(CNC(=O)c2ccco2)nc2ccccc21
594 | CCn1ccc2sc(C)c(C(=O)NCCCN3CCCC3=O)c2c1=O
769 | COc1cccc(/C=N\NC(=O)C(C)SC(C)C(=O)N/N=C/c2cccc(OC)c2)c1 (centres undefined)
706 | CCCn1ncc(N2CCC(C(=O)NCc3cccc(F)c3)CC2)cc1=O
764 | CCn1nc(CNC(=O)Cc2cccc(F)c2)c2ccccc21
780 | CC(C)N1C(=O)C2(CCCC2)C1C(=O)N1CCc2ccccc21 (centres undefined)
1060 | Cc1nc2cc(-c3noc(Cc4ccccc4C)n3)ccc2o1
795 | Cc1nnc(N2CCCC(C(=O)N(C)Cc3ccccc3)C2)c2nn(-c3ccc(Cl)cc3)c(C)c12 (centres undefined)
819 | Cc1ccn2c(Nc3ccccc3C)c(-c3cccc(Br)c3)nc2c1
703 | N#Cc1cccc(-c2cn3c(n2)N(C(=O)C2CCCO2)CCC3)c1 (centres undefined)
876 | CCOCCCNC(=O)c1c(N)n(-c2ccc(C(C)=O)cc2)c2nc3ccccc3nc12
886 | COc1ccc(CNC(=O)Cc2csc3nc(-c4cccc(Br)c4)cn23)cc1
676 | Nc1ncc2c(n1)CC(c1ccco1)CC2=O (centres undefined)
744 | O=C(Cn1nc2c(N3CCCCCC3)nccn2c1=O)NCc1cc(F)cc(F)c1
1080 | COc1ccccc1NC(=O)N1CCCC1c1nc(-c2cccc(C)c2)no1 (centres undefined)
685 | CN1CCN(c2ccc(-c3nc(-c4cccc(F)c4)no3)cn2)CC1
947 | N#Cc1ccc(-c2nc(-c3ccc(S(=O)(=O)N4CCC(C(=O)N5CCCC5)CC4)cc3)no2)cc1
865 | Cc1[nH]c2ccc(F)cc2c1CCNS(=O)(=O)c1ccc(F)cc1
678 | CCOc1ccc(C2c3[nH]c4ccccc4c3CCN2C(=O)c2ccnn2C)cc1 (centres undefined)

RP-LC retention time [s] | SMILES
864 | Cc1ccc(NC(=O)c2ncn3c2C(=O)N(C2CC2)C(C)(C(=O)NC2CCCC2)C3)c(Cl)c1 (centres undefined)
979 | COc1ccc(-c2csc(NC(=O)CSc3nc(C)cc(C)n3)n2)cc1
687 | COc1ccc(-c2c(C)noc2NC(C)=O)cc1S(=O)(=O)Nc1cc(OC)c(OC)c(OC)c1
842 | Cc1ccc(-c2cc3c4nn(CC(=O)N5CCCC5)c(=O)n4ccn3n2)cc1C
802 | COc1ccccc1-c1noc(C2CCCN2C(=O)c2ccsc2)n1 (centres undefined)
903 | COC(=O)C1=CN(c2cccc(Br)c2)c2cc(F)ccc2S1(=O)=O
563 | O=C1CC(NC(=O)c2cc(C3CC3)on2)CN1 (centres undefined)
661 | COCCC1CCN(C(=O)CN(C)C(=O)c2n[nH]c3ccccc23)CC1
774 | O=C(NCc1ccccc1)c1ccc(CN2CCN(Cc3ccc(F)cc3)C(=O)C2=O)cc1
868 | Cc1ccc(N2CC(c3noc(-c4ccoc4)n3)CC2=O)cc1 (centres undefined)
654 | Nc1nnc(SCc2nnc(-c3ccccc3)o2)s1
688 | COc1ccccc1NC(=O)Cn1cnc2nc(N3CCCC(C(=O)NC(C)C)C3)sc2c1=O (centres undefined)
759 | CCOc1ccc(NC(=O)N2CCC(n3c(-c4ccco4)nc4cccnc43)C2)cc1 (centres undefined)
989 | Cc1cc(NS(=O)(=O)c2cn(CC(C)C)c3ncccc23)ccc1F
585 | O=C(NC1CC1)c1c2c(nc3ccccc13)CCCC2
663 | N#Cc1cnc2nc(-c3ccccc3)nn2c1N
596 | Cc1cc(C)n(-c2ccc(N3CCN(C(=O)COc4ncccn4)CC3)nn2)n1
824 | CC(C)n1c(N2CCN(C(=O)Cc3c[nH]c4ccccc34)CC2)cc(=O)n(C(C)C)c1=O
876 | Cc1ccc(CN2C(=O)NC3(CCN(C(=O)COc4ccc(C)cc4)CC3)C2=O)cc1
816 | CCn1cc(S(=O)(=O)N2CCCn3nc(-c4cccs4)cc3C2)cn1
1040 | COc1ccc(-c2nnc(Cc3nc(-c4ccc(OC)c(F)c4)no3)o2)cc1

SMILES | RP-LC retention time [s]
O=C(CN1CC=C(c2cnn(-c3ccccc3)c2)CC1)N1CCOCC1 | 604
O=C(c1ccc([N+](=O)[O-])o1)N1CC2CC(C1)c1cccc(=O)n1C2 (centres undefined) | 585
